{"source": "patent US8232301B2", "about": "“Pesticidal compositions” (Dow AgroScience, LLC., priority 2008, dated 2012)", "test_system": "green peach aphid, Myzus persicae (GPA)", "test": "Foliar spray test of Compound A, nonionic surfactant and AMS combinations on green peach aphid on cabbage", "type": "in vivo", "conditions": "for Aphid count/plant / % Control (negative values to 0) / Calculated Colby Value: Rep 1-4; for T-Test Results (synergy mark): measured vs Colby, two-sided T-test", "protocol": "Materials and Methods. Solutions of nonionic surfactant (Atlox 4991 0.125% and 0.25% V/V; 1250 and 2500 ppm respectively) and ammonium sulfate (“AMS” 10,200 and 20,400 ppm) were prepared in 500 mL of water. Water used to prepare all solutions was obtained from a Milli Q water purification system. Combination mixtures were created by adding surfactant to aliquots of AMS and water solution to create all two-way combinations of surfactant and AMS. A 500 ppm stock solution of Compound A in water was prepared by adding […] of Compound A to 40 mL of water. 62.4 μL of this 500 ppm solution was added to 20 mL of each AMS, surfactant, or surfactant and AMS solution to create 1.56 ppm Compound A high rate solutions. These high rate solutions of Compound A and surfactant, Compound A and AMS, or Compound A, AMS, and surfactant, were serially diluted in two-fold increments with the appropriate surfactant, AMS, or AMS and surfactant combination solutions, to create a dilution series from 1.56 to 0.19 ppm. A dilution series of Compound A in water with no surfactant or AMS was also prepared. All solutions of surfactant, AMS, or surfactant and AMS, were tested without Compound A. Two-to-three-leaf stage cabbage plants were infested on day 1 with green peach aphid, Myzus persicae (GPA), by transferring aphid infested foliage to each plant. A uniform number of aphids were transferred based on visual inspection of the infested foliage. Plants were sprayed on all surfaces to wet using a hand held aspirator type sprayer on day 2. Four replicates of each treatment combination were sprayed and all stages of live aphids on each plant were counted on day 4. Data were converted to percent control based on the number of aphids in the unsprayed check treatment. Counts of aphids on unsprayed check plants were used to calculate control for surfactant and AMS solutions. Additionally, the average aphid count on the unsprayed check treatment was used to calculate percent control values for plants sprayed with only Compound A. Aphid counts from plants treated with combinations of Compound A and AMS, surfactant, or AMS and surfactant, were converted to percent control by using the average aphid count from the unsprayed check treatment. Negative percent control values were changed to zero percent control values before assessing treatment combinations for synergy. […] Measured efficacy (percent Control) data were compared to calculated Colby values (Colby, S. R. 1967. Calculating Synergistic and Antagonistic Responses of Herbicide Combinations. Weeds 15:20-22) using a two-sided T-test (Minitab).", "key": {"[1]": {"conditions": "A 0.19 ppm + NS 1250 ppm + AMS 10,200 ppm"}, "[2]": {"conditions": "A 0.19 ppm + NS 1250 ppm + AMS 20,400 ppm"}, "[3]": {"conditions": "A 0.19 ppm + NS 2500 ppm + AMS 10,200 ppm"}, "[4]": {"conditions": "A 0.19 ppm + NS 2500 ppm + AMS 20,400 ppm"}, "[5]": {"conditions": "treatment #12: A 0.19 ppm + AMS 20,400 ppm"}, "[6]": {"conditions": "treatment #14: A 0.19 ppm + NS 1250 ppm + AMS 20,400 ppm"}, "[7]": {"conditions": "treatment #15: A 0.19 ppm + NS 2500 ppm + AMS 20,400 ppm"}, "[8]": {"conditions": "treatment #16: A 0.19 ppm + NS 1250 ppm + AMS 10,200 ppm"}}, "note": "Where “and” joins values, the source holds several entries; their conditions need not be identical. Identical values can stand only once. Marks after values point to notes of the source that are not given here.", "data": [{"smiles": "N.N.O=S(=O)(O)O", "note": "[AMS, ammonium sulfate]", "values": [{"measurement": "Aphid count/plant", "setting": "treatment #4: AMS 20,400 ppm alone", "value": "35 and 36 and 38 and 31"}, {"measurement": "% Control (negative values to 0)", "setting": "treatment #5: AMS 10,200 ppm alone", "value": 0.0, "unit": "%"}]}, {"smiles": "CC(c1ccc(C(F)(F)F)nc1)S(C)(=O)=NC#N", "note": "(stereo not drawn) [Compound A]", "values": [{"measurement": "% Control Colby Calculated, Mean", "setting": "A 0.19 ppm + AMS 10,200 ppm", "value": 43, "unit": "%"}, {"measurement": "% Control Measured, Mean", "setting": "A 0.19 ppm + AMS 10,200 ppm", "value": 32, "unit": "%"}, {"measurement": "% Control Colby Calculated, Mean", "setting": "A 0.19 ppm + AMS 20,400 ppm", "value": 55.58, "unit": "%"}, {"measurement": "% Control Measured, Mean", "setting": "A 0.19 ppm + AMS 20,400 ppm", "value": 38.3, "unit": "%"}, {"measurement": "% Control Colby Calculated, Mean", "setting": "A 0.19 ppm + NS 1250 ppm", "value": 58.28, "unit": "%"}, {"measurement": "% Control Measured, Mean", "setting": "A 0.19 ppm + NS 1250 ppm", "value": 76.4, "unit": "%"}, {"measurement": "% Control Colby Calculated, Mean", "setting": "[1]", "value": 58.28, "unit": "%"}, {"measurement": "% Control Measured, Mean", "setting": "[1]", "value": 93.28, "unit": "%"}, {"measurement": "T-Test Results (synergy mark)", "setting": "[1]", "value": "T = 6.60 P = 0.0027***"}, {"measurement": "% Control Colby Calculated, Mean", "setting": "[2]", "value": 60.1, "unit": "%"}, {"measurement": "% Control Measured, Mean", "setting": "[2]", "value": 91.1, "unit": "%"}, {"measurement": "T-Test Results (synergy mark)", "setting": "[2]", "value": "T = 3.26 P = 0.022***"}, {"measurement": "% Control Colby Calculated, Mean", "setting": "A 0.19 ppm + NS 2500 ppm", "value": 57, "unit": "%"}, {"measurement": "% Control Measured, Mean", "setting": "A 0.19 ppm + NS 2500 ppm", "value": 63.7, "unit": "%"}, {"measurement": "% Control Colby Calculated, Mean", "setting": "[3]", "value": 57, "unit": "%"}, {"measurement": "% Control Measured, Mean", "setting": "[3]", "value": 80, "unit": "%"}, {"measurement": "% Control Colby Calculated, Mean", "setting": "[4]", "value": 63.3, "unit": "%"}, {"measurement": "% Control Measured, Mean", "setting": "[4]", "value": 96.33, "unit": "%"}, {"measurement": "T-Test Results (synergy mark)", "setting": "[4]", "value": "T = 3.68 P = 0.035***"}, {"measurement": "synergy", "setting": "A 0.19 ppm combined with AMS and surfactant, three of 4 possible mixtures statistically supported", "value": "significant synergy"}, {"measurement": "synergy", "setting": "A 0.19 ppm combined with surfactant or AMS (two-way mixtures), 0.05% level", "value": "no instances where synergy could be supported"}, {"measurement": "efficacy", "setting": "A at concentrations of 1.56, 0.78 and 0.39, not combined with surfactant or AMS", "value": "great enough that identifying synergy was not practical"}, {"measurement": "% Control (negative values to 0)", "setting": "treatment #10: A 0.19 ppm + NS 1250 ppm", "value": "85.4% and 98.1% and 64.3% and 57.9%"}, {"measurement": "Calculated Colby Value", "setting": "treatment #10: A 0.19 ppm + NS 1250 ppm, predicted % control", "value": "53.6% and 63.2% and 60.2% and 56.1%"}, {"measurement": "Aphid count/plant", "setting": "[5]", "value": "19 and 24 and 20"}, {"measurement": "Calculated Colby Value", "setting": "[5]", "value": "56.5% and 64.4% and 43.9% and 57.5%"}, {"measurement": "Aphid count/plant", "setting": "treatment #13: A 0.19 ppm + AMS 10,200 ppm", "value": "23 and 30 and 28 and 17"}, {"measurement": "% Control (negative values to 0)", "setting": "[6]", "value": "97.9% and 98.1% and 100.0% and 68.4%"}, {"measurement": "Calculated Colby Value", "setting": "[6]", "value": "53.6% and 63.2% and 48.7% and 74.8%"}, {"measurement": "% Control (negative values to 0)", "setting": "[7]", "value": "95.8% and 100.0% and 89.5%"}, {"measurement": "Calculated Colby Value", "setting": "[7]", "value": "60.2% and 63.2% and 43.9% and 85.8%"}, {"measurement": "% Control (negative values to 0)", "setting": "[8]", "value": "97.9% and 96.3% and 100.0% and 78.9%"}, {"measurement": "Calculated Colby Value", "setting": "[8]", "value": "53.6% and 63.2% and 60.2% and 56.1%"}, {"measurement": "% Control (negative values to 0)", "setting": "treatment #17: A 0.19 ppm + NS 2500 ppm + AMS 10,200 ppm", "value": "72.9% and 98.1% and 85.7% and 63.2%"}]}]}
